Key:
[1] = treatment resistant paediatric epilepsy; cited from earlier work
Tsc2−/− MEFs = test: Matrigel cell invasion assay in Tsc2−/− MEFs; type: cell-based, mouse
Protocol: (ii) Tsc2−/− p53−/− and Tsc2+/+p53−/− mouse embryonic fibroblast (MEF) cell lines (now referred to as Tsc2−/− and Tsc2+/+, respectively).
(§1) Tsc2−/− and Tsc2+/+ cell lines were cultured and maintained in DMEM supplemented with 10% (v/v) FBS and 1% (v/v) penicillin-streptomycin in a humidified incubator (5% CO2 at 37° C.). The AML −/− cell lines were cultured and maintained in DMEM supplemented with 15% (v/v) FBS and 1% (v/v) penicillin-streptomycin in a humidified incubator (5% CO2 at 37° C.). For hypoxia, cells were put into a Binder CB150 hypoxic chamber set at 1% 02 for the indicated time points
The stock concentration of CBD was made to 20 mM in dimethyl sulfoxide (DMSO). CBD was added to culture media to final concentrations of either 5 μM or 10 μM, as indicated). The final concentration of the DMSO in the cell culture medium was at a maximum level of 0.05% (v/v).
Transwell permeable supports with 6.5 mm diameter inserts, 8.0 μm pore size, and a polycarbonate membrane were used to perform migration assays. Cells were grown in a 75-cm2 flask with standard medium (10% (v/v) FBS) until confluent. […] Cells were counted using a haemocytometer. […] The percentage of adherent cells was then determined by fixing the cells with methanol and acetone (1:1) for 20 minutes at 20° C. […] Crystal Violet stained cells were eluted with 1% (w/v) SDS and the absorbance was read at 550 nm on a Genova MK3 Lifescience. […]

AML 621-101 cells [2] = test: Transwell cell migration assay in AML 621-101 cells; type: cell-based
Protocol: (§2) (i) Angiomyolipomas (AML) cells derived from a Tuberous Sclerosis Complex patient (621-101 cell-line), with a known loss of function of TSC2. […] Zeocin™ was purchased from LifeTechnologies (cat no: R25001) and was used to originally generate the stable cell line (by Prof. Lisa Henske) over two weeks of Zeocin™ selection and then for continued maintenance of the cells in tissue culture (at 100 μg/ml).
as §1
The stock concentration of CBD was made to 20 mM in dimethyl sulfoxide (DMSO). […]
(§3) Transwell permeable supports with 6.5 mm diameter inserts, 8.0 μm pore size, and a polycarbonate membrane were used to perform migration assays. […] Cells were counted using a haemocytometer. […] The percentage of adherent cells was then determined by fixing the cells with methanol and acetone (1:1) for 20 minutes at 20° C. […] Crystal Violet stained cells were eluted with 1% (w/v) SDS and the absorbance was read at 550 nm on a Genova MK3 Lifescience.

pS6 positive cells [3] = test: Size of pS6 positive cells in zebrafish model of TSC; type: in vivo
Text: (§4) A zebrafish model of TSC with a tsc2 gene deletion was used. This model has been previously published and validated (Kim et al. 2011). By mating the gene deletion animals with wild-type tsc2+/+ animals, heterozygote (tsc2+/−) zebrafish were also obtained and tested in this example.
(§5) For both pS6 and TUNEL staining, non-consecutive sections were imaged using a Zeiss AxioImager microscope. Exposure time was kept constant during image acquisition and determined by the observation of a slide where primary antibody or enzyme solution was omitted. Pictures were taken with a 20× objective, using the AxioVision software, and coloured using Fiji ImageJ. All counting and measuring of cells was done in the original black and white pictures.
(§6) Statistical analysis was performed in SPSS (IBM SPSS Statistics 22), except for the chi-square test, which was done using GraphPad Prism 5. Normality and sphericity were tested using the Kolmogorov-Smirnov and Mauchly's tests, respectively. Repeated measures two-way ANOVA tests were used to analyse the locomotor assay data and cell number, while a three-way ANOVA test was used to analyse cell size. Touch response (TR) between genotypes and treatments was analysed by chi-square test. Tests were followed by Tukey or Bonferroni post-hoc tests.

[4] = system: mTORC1 signalling (rpS6 phosphorylation); test: Western blot of rpS6 phosphorylation (mTORC1 signalling) in Tsc2−/− MEFs; type: cell-based, mouse; conditions: CBD at 5 μM, 6 h of treatment
Protocol: (§7) Cells were washed in Phosphate Buffered Saline (PBS) and then lysed directly in sample buffer (62.5 mM Tris HCL, 50 mM DTT, 2% SDS (w/v), 10% Glycerol (w/v), 0.1% Bromophenol blue (w/v) pH 7.6) and sonicated for 5×20 s cycles on full power (30 amplitude microns). Samples were boiled at 95° C. for 10 min. Lysates were resolved by SDS-PAGE and proteins were transferred to polyvinylidene difluoride membranes.
(§8) Membranes were blocked in 5% (w/v) dry milk powder dissolved in Tris-buffered saline containing 0.1% (v/v) Tween, then probed with primary antibody and horse radish peroxidase-conjugated secondary antibody. Proteins were visualized using Enhanced Chemiluminescent solution and Hyperfilm. Antibodies towards ribosomal protein S6 (rpS6), phospho-rpS6 (Ser235/236) were purchased from Cell Signaling Technology. Anti-HIF-1α was obtained from BD transduction laboratories. Statistical Analysis
Western blotting was carried out to determine whether CBD could impair mTORC1 signalling (using rpS6 phosphorylation as a readout of mTORC1 signalling).

HIF-1α protein = test: Western blot of hypoxia induced HIF-1α in Tsc2−/− MEFs; type: cell-based, mouse; conditions: CBD at 10 μM
Protocol: as §1, §7
as §8, with “Analysis […]” for “Analysis”

pS6 positive cells [5] = test: Number of pS6 positive cells in zebrafish model of TSC; type: in vivo; conditions: for effect on average number of pS6 positive cells: Danieau's incubated
Text: as §4, §5, §6
To explore mTOR pathway activation in the different genotypes and treatments, immunohistochemistry was performed using a pS6 (Ser235/236) antibody.
To better understand the apparent differences between groups, pS6 positive cells were counted for each genotype and treatment. A significant main effect of genotype was found, with tsc2−/− zebrafish sections showing more pS6 positive cells in the brain than tsc2+/+ and tsc2+/−(+173.3%) (FIG. 4A).

AML 621-101 cells [6] = test: Matrigel cell invasion assay in AML 621-101 cells; type: cell-based; conditions: CBD at both 5 μM and 10 μM
Protocol: as §2
Tsc2−/− and Tsc2+/+ cell lines were cultured and maintained in DMEM supplemented with 10% (v/v) FBS and 1% (v/v) penicillin-streptomycin in a humidified incubator (5% CO2 at 37° C.). […]
as §3
For invasion assays, a similar protocol was used; however, the top chamber of the Transwell was filled with […] of BD Matrigel Basement Membrane Matrix (1 mg/mL). […] The number of invaded cells was determined by fixation staining and elution of crystal violet with 1% (w/v) SDS, as before.

C=C(C)[C@@H]1CCC(C)=C[C@H]1c1c(O)cc(CCCCC)cc1O [CBD, Cannabidiol]
seizure frequency [1]: significant reductions in seizure frequency | cell invasion (Tsc2−/− MEFs; 5 μM CBD): restoring invasion to the level of the Tsc2+/+ control cells | cell invasion (Tsc2−/− MEFs; 10 μM CBD): more robust effect | cell migration compared with rapamycin (AML 621-101 cells [2]; 10 μM CBD): reduced cell migration to a significantly greater extent than rapamycin | cell migration (AML 621-101 cells [2]; CBD at both 5 μM and 10 μM): significantly block | change in size of pS6 positive cells (pS6 positive cells [3]; main effect of treatment, compared to Danieau's or DMSO groups, FIG. 5B): −20.1% | effect on size of pS6 positive cells (pS6 positive cells [3]; tsc2+/+ zebrafish): did not affect cell size | change in size of pS6 positive cells (pS6 positive cells [3]; tsc2+/− zebrafish, compared to Danieau's, FIG. 5C): −27.6% | change in size of pS6 positive cells (pS6 positive cells [3]; tsc2+/− zebrafish, compared to the DMSO group, FIG. 5C): −18.1% | change in size of pS6 positive cells (pS6 positive cells [3]; tsc2−/− zebrafish, compared to Danieau's, FIG. 5C): −23% | change in size of pS6 positive cells (pS6 positive cells [3]; tsc2−/− zebrafish, compared to the DMSO group, FIG. 5C): −20.8% | rpS6 phosphorylation [4]: inhibited rpS6 phosphorylation | hypoxia induced expression of HIF-1α protein (HIF-1α protein): sufficient to block hypoxia induced expression of HIF-1α protein | change in average number of pS6 positive cells (pS6 positive cells [5]; main effect of treatment, compared to DMSO group, FIG. 4B): −77.1% | change in average number of pS6 positive cells (pS6 positive cells [5]; main effect of treatment, compared to Danieau's group, FIG. 4B): −63.2% | effect on average number of pS6 positive cells (pS6 positive cells [5]; tsc2+/+ zebrafish): no significant effect | effect on average number of pS6 positive cells (pS6 positive cells [5]; tsc2+/− zebrafish): no significant effect | change in average number of pS6 positive cells (pS6 positive cells [5]; tsc2−/− zebrafish, for the DMSO group, FIG. 4C): −58.9% | change in average number of pS6 positive cells (pS6 positive cells [5]; tsc2−/− zebrafish, for the Danieau's group, FIG. 4C): −55.4% | cell invasion (AML 621-101 cells [6]): significantly block

Source: patent US12263139B2, “Use of cannabidiol in the treatment of tuberous sclerosis complex” (Jazz Pharmaceuticals Research UK Limited, priority 2017, dated 2025)
